In ChEMBL document CHEMBL3272025, “Conformation-activity studies of oxytocin. Effects of structural modifications at corner positions of the beta-turns on the uterotonic activity” (J Med Chem, 1977):
Bridge positions count the residues as written; N and C are the ends. Peptide text beside a SMILES is read from it.

Key:
[1] = molecular target: T1, Oxytocin receptor (Rattus norvegicus) (UniProt P70536); test: Agonist activity at oxytocin receptor in virgin rat uterine horns assessed as uterotonic activity at
T1 sequence (whole entry): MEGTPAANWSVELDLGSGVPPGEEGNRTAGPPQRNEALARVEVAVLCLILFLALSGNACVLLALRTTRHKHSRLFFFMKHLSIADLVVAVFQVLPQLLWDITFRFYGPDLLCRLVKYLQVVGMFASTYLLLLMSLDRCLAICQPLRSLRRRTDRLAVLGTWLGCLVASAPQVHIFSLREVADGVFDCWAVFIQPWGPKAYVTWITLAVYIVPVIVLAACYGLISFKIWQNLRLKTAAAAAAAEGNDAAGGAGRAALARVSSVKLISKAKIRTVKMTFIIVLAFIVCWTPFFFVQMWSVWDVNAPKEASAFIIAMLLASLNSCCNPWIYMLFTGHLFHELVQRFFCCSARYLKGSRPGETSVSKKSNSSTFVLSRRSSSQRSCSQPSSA

[2] = system: Gallus gallus; test: Vasodepressor activity in conscious chicken; type: functional
[3] = system: Rattus norvegicus; test: Antidiuretic activity in anesthetized rat; type: functional, Urine
[4] = system: Rattus norvegicus; test: Pressor activity in anesthetized rat; type: functional
[5] = Retardation factor of the compound using BuOH-C6H6-HOAc-1.5% aqueous pyridine at ratio of 10:15:12:18 as solvent system by partition chromatography; type: physicochemical; conditions: buffer
[6] = molecular target: T1, Oxytocin receptor (Rattus norvegicus); test: Agonist activity at oxytocin receptor in virgin rat uterine horns assessed as uterotonic activity at relative to synthetic oxytocin
[7] = Retardation factor of the compound using BuOH-HOAc-H2O at ratio of 4:1:1 as solvent system by thin layer chromatography; type: physicochemical
[8] = Retardation factor of the compound using BuOH-pyridine-HOAc-H2O at ratio of 15:10:3:6 as solvent system by thin layer chromatography; type: physicochemical
[9] = system: Gallus gallus; test: Inhibition of vasodepressor activity in conscious chicken; type: functional, organism-based; conditions: read-out: pA2 (converted)
[10] = Retardation factor of the compound using BuOH-C6H6-HOAc-1.5% aqueous pyridine at ratio of 5:5:4:6 as solvent system by partition chromatography; type: physicochemical; conditions: buffer
[11] = Retardation factor of the compound using BuOH-pyridine-H2O at ratio of 20:10:11 as solvent system by thin layer chromatography; type: physicochemical

Structure (SMILES)	Activity [1]	Activity [2]	Activity [3]	Activity [4]	Rf [5]	Activity [6]	Rf [7]	Rf [8]	Kb [9]	Rf [10]	Rf [11]
CSCC[C@H](NC(=O)[C@@H]1CCCN1C(=O)[C@@H]1CSSC[C@H](N)C(=O)N[C@@H](Cc2ccc(O)cc2)C(=O)N[C@@H](Cc2ccccc2)C(=O)N[C@@H](CC(C)C)C(=O)N[C@@H](CC(N)=O)C(=O)N1)C(=O)NCC(N)=O (H-CYFLNCPMG-NH2; disulfide 1-6)	0.62 U/mg	1.05 U/mg	0.33 U/mg	0.92 U/mg	0.17	66%	0.38	0.64			
CSCC[C@H](NC(=O)[C@@H]1CCCN1C(=O)[C@@H]1CSSC[C@H](N)C(=O)N[C@@H](Cc2ccc(O)cc2)C(=O)N[C@@H](Cc2ccccc2)C(=O)N[C@@H](Cc2ccccc2)C(=O)N[C@@H](CC(N)=O)C(=O)N1)C(=O)NCC(N)=O (H-CYFFNCPMG-NH2; disulfide 1-6)			0.43 U/mg		0.19	54%	0.38		513 nM	0.49	
CC[C@H](C)[C@@H]1NC(=O)[C@H](Cc2ccc(O)cc2)NC(=O)[C@@H](N)CSSC[C@@H](C(=O)N2CCC[C@H]2C(=O)N[C@@H](CC(C)C)C(=O)NCC(N)=O)NC(=O)[C@H](CC(N)=O)NC(=O)[C@H](Cc2ccccc2)NC1=O (H-CYIFNCPLG-NH2; disulfide 1-6)	0.75 U/mg				0.26	75%	0.38				0.61
CC(C)C[C@H](NC(=O)[C@@H]1CCCN1C(=O)[C@@H]1CSSC[C@H](N)C(=O)N[C@@H](Cc2ccc(O)cc2)C(=O)N[C@@H](Cc2ccccc2)C(=O)N[C@@H](CCC(N)=O)C(=O)N[C@@H](CC(N)=O)C(=O)N1)C(=O)NCC(N)=O (H-CYFQNCPLG-NH2; disulfide 1-6)	39 U/mg					90%					
CC[C@H](C)[C@@H]1NC(=O)[C@H](Cc2ccc(O)cc2)NC(=O)[C@@H](N)CSSC[C@@H](C(=O)N2CCC[C@H]2C(=O)N[C@@H](CC(C)C)C(=O)NCC(N)=O)NC(=O)[C@H](CC(N)=O)NC(=O)[C@H](CC(C)C)NC1=O (H-CYILNCPLG-NH2; disulfide 1-6)	13 U/mg					81%					
